Measurements reported in patent US20200323986A1, “HYDROPHOBIC ARENESULFONATE SALTS” (Theracaine LLC, priority 2017, published 2020).

Key:
[1] = Clinical (cage side) observations and body weight after a single subcutaneous dose; details: rat; for tolerability as administered (summary): particles in PEG200, 114/134/161/193 mg/kg-bw (Groups 1-4)
Description: (§1) The test articles are drug compositions consisting of B-4BrBSA-650, B-35BrBSA-650, L-4BrBSA-650, and L-35BrBSA-650 particles in a polyethylene glycol 200 vehicle (PEG200; Sigma-Aldrich, polyethylene glycol 200 Bioultra). The test articles were prepared by adding a volume of […] to an appropriate weighed amount of test article in a vial, gently mixed, and then applied uniformly via a single subcutaneous dose via incision on the dorsum of female Sprague Dawley rats.
(§2) Doses were administered via an incision on the dorsal region, as a subcutaneous liquid application (suspension of powder). Each test article was administered at an amount determined by each animal's weight using the calculated mg per kg-bw (bodyweight) as shown in the table below.
(§3) The vehicle was provided as a liquid in an individual container. […] A volume of 100 μL of vehicle was added to each individual dose, allowed to soak, and shaken occasionally to uniformly mix the particles with the PEG200.
(§4) For all groups, the test article suspension was applied to the subcutaneum using a plastic spatula. The test article was distributed as evenly as possible. Incisions were closed with staples, and the animals allowed to recover. All animals received analgesia and antibiotic treatment.
(§5) Cage side observations were performed daily.

[2] = Gross evaluation of dose sites and general gross necropsy at study termination; assay type: in vivo, female Sprague Dawley rats; details: rat
Description: Sigma-Aldrich, polyethylene glycol 200 Bioultra). […] The test article was distributed as evenly as possible. […] All animals received analgesia and antibiotic treatment. Cage side observations were performed daily.

[3] = Pharmacokinetics of caine anesthetic salt particles after a single subcutaneous dose (plasma drug concentration versus time); details: rat; for initial spike in bupivacaine plasma concentration: single subcutaneous dose, 650 μm particles in PEG200, Groups 1 and 2; for delivery of lidocaine over time (plasma lidocaine concentration versus time) / initial spike in plasma lidocaine concentration: in vivo, sc
Description: as §1, §2, §3, §4, §5

[4] = animals that lost weight, over the course of the study
[5] = five animals per group, single subcutaneous dose
[6] = group average, single subcutaneous dose
[7] = at study termination (after 96 h sampling)

SMILES	weight loss [1, 4]	animals that lost weight over the course of the study [1, 5]	group mean body weight change at the end of the study [1, 6] [gram]	tolerability as administered (summary) ([1]; single subcutaneous dose)	encapsulation at dose site ([2]; at study termination)	other dose site findings (hematoma, unknown material) ([2]; at study termination)	vascularization surrounding the incision sites (dose site observation) ([2]; at study termination)	residual test article visible at dose site [2, 7]	initial spike in bupivacaine plasma concentration ([3]; FIGS. 1-2)	weight loss ([1]; in vivo)	animals that lost weight over the course of the study ([1]; in vivo, sc)	group mean body weight change at the end of the study ([1]; in vivo, sc) [gram]	residual test article visible at dose site ([2]; in vivo)	vascularization surrounding the incision sites (dose site observation) ([2]; in vivo)	delivery of lidocaine over time (plasma lidocaine concentration versus time) [3]	initial spike in plasma lidocaine concentration [3]	other results
CCCCN1CCCCC1C(=O)Nc1c(C)cccc1C.O=S(=O)(O)c1ccc(Br)cc1 (centres unmarked) [Example B-4BrBSA-650, Bupivacaine 4-bromobenzenesulfonate salt]	less than 5 % total body weight	two out of five	4	well tolerated	No additional encapsulation or residual test article was visible	Hematomas were present in Animals #2 and #4, with encapsulation of clotted blood in Animal #4	very slight to slight vascularization	No additional encapsulation or residual test article was visible	initial spike in bupivacaine plasma concentration exhibited by test article 1	–	–	–	–	–	–	–	–
CCCCN1CCCCC1C(=O)Nc1c(C)cccc1C.Cc1c(Br)cc(S(=O)(=O)O)cc1Br (centres unmarked) [B-35BrBSA-650, Bupivacaine 3,5-dibromo-4-methybenzenesulfonate salt]	less than 5 % total body weight	two out of five	1	well tolerated	No encapsulation was present	A small hematoma was present in Animal #7	very slight to slight vascularization	Small areas of residual test article were visible at or near the incision site in all animals	without the initial spike in bupivacaine plasma concentration	–	–	–	–	–	–	–	duration of delivery of bupivacaine (plasma bupivacaine concentration versus time) ([3]; single subcutaneous dose via dorsal incision, 650 μm particles in 100 μL PEG200, 114 (Group 1) / 134 (Group 2) mg/kg-bw, plasma to 96 h, FIGS. 1-2): greater duration of delivery of bupivacaine compared to test article 1
CCN(CC)CC(=O)Nc1c(C)cccc1C.O=S(=O)(O)c1ccc(Br)cc1 [Example L-4BrBSA-650, Lidocaine 4-bromobenzenesulfonate salt]	–	–	–	–	–	–	–	–	–	less than 5 % total body weight	four out of five	−1	No residual test article was visible	moderate to severe vascularization	at least 24 hours	initial spike in plasma lidocaine concentration exhibited by test article 3	survival ([1]; single subcutaneous dose, to scheduled euthanasia (96 h study)): all animals survived until scheduled euthanasia; encapsulation size at dose site ([2]; in vivo): 0.5-3 cm; other dose site findings (hematoma, unknown material) ([2]; in vivo): Areas of an unknown brown material were present in Animal #13
CCN(CC)CC(=O)Nc1c(C)cccc1C.Cc1c(Br)cc(S(=O)(=O)O)cc1Br [L-35BrBSA-650, Lidocaine 3,5-dibromo-4-methybenzenesulfonate salt]	–	–	–	well tolerated	–	–	–	–	–	less than 5 % total body weight	two out of five	1	No residual test article or encapsulation was visible	very slight to moderate vascularization	at least 24 hours	avoids the initial spike in plasma lidocaine concentration	encapsulation at dose site ([2]; in vivo): No residual test article or encapsulation was visible
